The record followed here is ChEMBL document CHEMBL5303763, “Data for DCP probe BI-3802” (2023).

Series [1] deals with B-cell lymphoma 6 protein (Homo sapiens, UniProt P41182). As to the kind of experiment: BCL6:BCOR ULight TR-FRET. On the technique in general: Time-resolved FRET reads energy transfer from a long-lived donor to a nearby acceptor.
For series [2], the target named is Prostaglandin G/H synthase 1 (Homo sapiens) (UniProt P23219). As to the kind of experiment: COX-1 Eurofins SafetyScreen44 (BI). The conditions noted are these: Compound concentration 10.0 uM.
Series [3] concerns the target Prostaglandin G/H synthase 2 (Homo sapiens) (UniProt P35354). As to the kind of experiment: COX-2 Eurofins SafetyScreen44 (BI). The conditions noted are these: Compound concentration 10.0 uM.
Series [4] concerns the target T1, 5-hydroxytryptamine receptor 1A (Homo sapiens) (UniProt P08908).
T1 sequence (whole entry): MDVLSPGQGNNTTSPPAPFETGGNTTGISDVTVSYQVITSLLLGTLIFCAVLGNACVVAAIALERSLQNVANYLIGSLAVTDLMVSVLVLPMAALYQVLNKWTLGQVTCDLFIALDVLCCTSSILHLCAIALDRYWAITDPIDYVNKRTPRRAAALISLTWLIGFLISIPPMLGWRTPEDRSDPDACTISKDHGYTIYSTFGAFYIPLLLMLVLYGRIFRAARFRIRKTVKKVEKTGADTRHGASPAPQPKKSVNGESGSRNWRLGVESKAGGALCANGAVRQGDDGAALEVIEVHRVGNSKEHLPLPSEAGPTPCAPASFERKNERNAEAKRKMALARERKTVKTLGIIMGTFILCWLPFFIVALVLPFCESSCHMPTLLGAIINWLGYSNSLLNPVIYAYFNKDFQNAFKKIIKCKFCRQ
In words: 5HT1A/H Eurofins SafetyScreen44 (BI). The conditions noted are these: Compound concentration 10.0 uM.

In series [5] the target is 5-hydroxytryptamine receptor 2B (Homo sapiens) (UniProt P41595). In words: 5HT2B/H AG Eurofins SafetyScreen44 (BI). The conditions noted are these: filed as agonist, Compound concentration 10.0 uM.
For series [6], the target named is Alpha-1A adrenergic receptor (Homo sapiens) (UniProt P35348). In words: ALPHA1AH_ANTAG Eurofins SafetyScreen44 (BI). The conditions noted are these: filed as antagonist, Compound concentration 10.0 uM.
For series [7], the target named is T2, Alpha-2A adrenergic receptor (Homo sapiens) (UniProt P08913).
T2 sequence (whole entry): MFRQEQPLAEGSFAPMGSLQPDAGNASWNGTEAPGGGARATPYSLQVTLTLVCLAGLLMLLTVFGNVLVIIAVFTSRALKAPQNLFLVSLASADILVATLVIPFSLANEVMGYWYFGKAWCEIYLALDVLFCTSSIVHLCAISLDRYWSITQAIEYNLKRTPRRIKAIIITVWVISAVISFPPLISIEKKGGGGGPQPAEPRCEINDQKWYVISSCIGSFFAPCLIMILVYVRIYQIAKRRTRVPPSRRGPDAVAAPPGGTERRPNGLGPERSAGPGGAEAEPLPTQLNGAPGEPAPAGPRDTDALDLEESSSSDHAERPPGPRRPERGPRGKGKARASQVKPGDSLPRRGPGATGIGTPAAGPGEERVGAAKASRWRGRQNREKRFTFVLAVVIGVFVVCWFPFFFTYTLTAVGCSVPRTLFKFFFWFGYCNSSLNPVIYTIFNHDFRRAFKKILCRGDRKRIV
As to the kind of experiment: ALPHA2A/HU Eurofins SafetyScreen44 (BI). The conditions noted are these: Compound concentration 10.0 uM.

Series [8] addresses Androgen receptor (Homo sapiens) (UniProt P10275). As to the kind of experiment: ANDROGEN/H Eurofins SafetyScreen44 (BI). The conditions noted are these: Compound concentration 10.0 uM.
For series [9], the target named is L-type Ca2+ channel (dihydropyridine site), Voltage-dependent L-type calcium channel subunit alpha-1C (Rattus norvegicus, UniProt P22002). As to the kind of experiment: CA+/DHPSI/R Eurofins SafetyScreen44 (BI). The conditions noted are these: rat brain, probe [3H](+)PN200-110, compound concentration 10 uM, read-out: % Ctrl.
Series [10] deals with Cholecystokinin receptor type A (Homo sapiens) (UniProt P32238). In words: CCKA/H Eurofins SafetyScreen44 (BI). The conditions noted are these: Compound concentration 10.0 uM.
The target in series [11] is Kappa-type opioid receptor (Rattus norvegicus) (UniProt P34975). In words: KAPPA/R Eurofins SafetyScreen44 (BI). The conditions noted are these: Compound concentration 10.0 uM.
For series [12], the target named is Tyrosine-protein kinase Lck (Homo sapiens) (UniProt P06239). As to the kind of experiment: LCK_CE Eurofins SafetyScreen44 (BI). The conditions noted are these: Compound concentration 10.0 uM.
Series [13] deals with 3',5'-cyclic-AMP phosphodiesterase 4D (Homo sapiens) (UniProt Q08499). As to the kind of experiment: PDE4D2 Eurofins SafetyScreen44 (BI). The conditions noted are these: Compound concentration 10.0 uM.
Series [14] concerns the target Sodium-dependent serotonin transporter (Homo sapiens) (UniProt P31645). In words: SLC6A4/H Eurofins SafetyScreen44 (BI). The conditions noted are these: filed as antagonist, Compound concentration 10.0 uM.
Series [15] has as its target AMP-activated protein kinase (AMPK) alpha-1/beta-1/gamma-1 (Homo sapiens) (UniProt P54619+Q9Y478+Q13131). In words: AMPK A1B1G1 Invitrogen Lab (UK) kinase screen (BI). Format: protein-complex assay. The conditions noted are these: Compound concentration 1.0 uM.
Series [16] deals with Fibroblast growth factor receptor 1 (Homo sapiens) (UniProt P11362). In words: FGFR1 Invitrogen Lab (UK) kinase screen (BI). The conditions noted are these: Compound concentration 1.0 uM.
Series [17] concerns the target Mitogen-activated protein kinase kinase kinase 8 (Homo sapiens) (UniProt P41279). In words: MAP3K8 Invitrogen Lab (UK) kinase screen (BI). The conditions noted are these: Compound concentration 1.0 uM.
Series [18] has as its target Serine/threonine-protein kinase PAK 4 (Homo sapiens) (UniProt O96013). In words: PAK4 Invitrogen Lab (UK) kinase screen (BI). The conditions noted are these: Compound concentration 1.0 uM.
Series [19] addresses Serine/threonine-protein kinase PLK1 (Homo sapiens) (UniProt P53350). In words: PLK1 Invitrogen Lab (UK) kinase screen (BI). The conditions noted are these: Compound concentration 1.0 uM.
In series [20] the target is Protein kinase C alpha type (Homo sapiens) (UniProt P17252). In words: PRKCA Invitrogen Lab (UK) kinase screen (BI). The conditions noted are these: Compound concentration 1.0 uM.
Series [21] has as its target Ribosomal protein S6 kinase alpha-5 (Homo sapiens) (UniProt O75582). As to the kind of experiment: RPS6KA5 Invitrogen Lab (UK) kinase screen (BI). The conditions noted are these: Compound concentration 1.0 uM.
Series [22] deals with SRSF protein kinase 2 (Homo sapiens) (UniProt P78362). In words: SRPK2 Invitrogen Lab (UK) kinase screen (BI). The conditions noted are these: Compound concentration 1.0 uM.
For series [23], the target named is Serine/threonine-protein kinase 3 (Homo sapiens) (UniProt Q13188). As to the kind of experiment: STK3 Invitrogen Lab (UK) kinase screen (BI). The conditions noted are these: Compound concentration 1.0 uM.
Series [24] deals with T1, 5-hydroxytryptamine receptor 1A (Homo sapiens). The conditions noted are these: Compound concentration 10.0 uM.
Series [25] has as its target 5-hydroxytryptamine receptor 1B (Homo sapiens) (UniProt P28222). The conditions noted are these: Compound concentration 10.0 uM.
Series [26] deals with 5-hydroxytryptamine receptor 5A (Homo sapiens) (UniProt P47898). The conditions noted are these: Compound concentration 10.0 uM.
Series [27] concerns the target D(3) dopamine receptor (Homo sapiens) (UniProt P35462). The conditions noted are these: Compound concentration 10.0 uM.
Series [28] concerns the target Sodium-dependent noradrenaline transporter (Homo sapiens) (UniProt P23975). The conditions noted are these: Compound concentration 10.0 uM.
Series [29] concerns the target Sodium-dependent dopamine transporter (Homo sapiens) (UniProt Q01959). The conditions noted are these: Compound concentration 10.0 uM.
Series [30] concerns the target Delta-type opioid receptor (Homo sapiens) (UniProt P41143). The conditions noted are these: Compound concentration 10.0 uM.
Series [31] has as its target Beta-2 adrenergic receptor (Homo sapiens) (UniProt P07550). The conditions noted are these: Compound concentration 10.0 uM.
For series [32], the target named is Muscarinic acetylcholine receptor M3 (Homo sapiens) (UniProt P20309). The conditions noted are these: Compound concentration 10.0 uM.

The source made the active and inactive calls. The rule behind the calls is not given here.

Sequence of Muscarinic acetylcholine receptor M3 (Homo sapiens) (P20309 whole entry, looked up): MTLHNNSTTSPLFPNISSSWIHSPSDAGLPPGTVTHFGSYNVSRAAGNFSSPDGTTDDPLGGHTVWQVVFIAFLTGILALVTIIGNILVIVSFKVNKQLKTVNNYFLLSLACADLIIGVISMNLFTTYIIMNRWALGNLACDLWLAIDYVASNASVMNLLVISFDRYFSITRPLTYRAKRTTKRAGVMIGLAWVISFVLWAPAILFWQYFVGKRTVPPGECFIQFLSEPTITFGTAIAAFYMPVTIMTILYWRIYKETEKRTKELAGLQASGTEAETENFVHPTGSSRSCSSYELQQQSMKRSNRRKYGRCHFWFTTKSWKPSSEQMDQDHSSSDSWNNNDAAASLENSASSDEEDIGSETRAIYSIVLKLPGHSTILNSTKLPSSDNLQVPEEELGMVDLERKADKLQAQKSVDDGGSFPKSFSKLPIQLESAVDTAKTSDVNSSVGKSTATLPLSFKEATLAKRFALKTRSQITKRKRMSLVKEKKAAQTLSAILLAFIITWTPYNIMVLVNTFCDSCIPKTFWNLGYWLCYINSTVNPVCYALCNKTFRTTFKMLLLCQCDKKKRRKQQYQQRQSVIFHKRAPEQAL
Sequence of Tyrosine-protein kinase Lck (Homo sapiens) (P06239 2-509 limits assumed): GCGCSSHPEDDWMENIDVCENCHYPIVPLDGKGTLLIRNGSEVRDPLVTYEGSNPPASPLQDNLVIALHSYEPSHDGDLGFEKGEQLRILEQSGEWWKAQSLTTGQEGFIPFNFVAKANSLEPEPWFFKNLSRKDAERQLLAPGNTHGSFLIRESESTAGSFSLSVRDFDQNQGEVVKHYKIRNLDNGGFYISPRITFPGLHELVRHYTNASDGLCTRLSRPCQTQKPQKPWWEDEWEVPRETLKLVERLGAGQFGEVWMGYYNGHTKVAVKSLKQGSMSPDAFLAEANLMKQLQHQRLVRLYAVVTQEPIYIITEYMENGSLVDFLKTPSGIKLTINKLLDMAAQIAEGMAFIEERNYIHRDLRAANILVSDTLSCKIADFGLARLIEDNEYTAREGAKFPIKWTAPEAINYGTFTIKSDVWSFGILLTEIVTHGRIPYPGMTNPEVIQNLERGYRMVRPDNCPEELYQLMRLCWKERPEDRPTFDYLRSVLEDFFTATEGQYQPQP
Sequence of D(3) dopamine receptor (Homo sapiens) (P35462 whole entry): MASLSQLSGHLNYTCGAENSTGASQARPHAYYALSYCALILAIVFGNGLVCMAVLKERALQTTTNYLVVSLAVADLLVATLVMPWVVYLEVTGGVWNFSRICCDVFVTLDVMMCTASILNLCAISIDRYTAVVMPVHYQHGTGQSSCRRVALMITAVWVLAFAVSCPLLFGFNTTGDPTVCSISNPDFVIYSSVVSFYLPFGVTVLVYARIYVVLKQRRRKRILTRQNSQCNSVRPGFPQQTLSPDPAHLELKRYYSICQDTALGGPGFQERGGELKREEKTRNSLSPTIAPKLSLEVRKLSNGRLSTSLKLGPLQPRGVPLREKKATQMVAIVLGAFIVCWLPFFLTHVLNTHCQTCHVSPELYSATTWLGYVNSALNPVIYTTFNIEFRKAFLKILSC
Sequence of Androgen receptor (Homo sapiens) (P10275 whole entry): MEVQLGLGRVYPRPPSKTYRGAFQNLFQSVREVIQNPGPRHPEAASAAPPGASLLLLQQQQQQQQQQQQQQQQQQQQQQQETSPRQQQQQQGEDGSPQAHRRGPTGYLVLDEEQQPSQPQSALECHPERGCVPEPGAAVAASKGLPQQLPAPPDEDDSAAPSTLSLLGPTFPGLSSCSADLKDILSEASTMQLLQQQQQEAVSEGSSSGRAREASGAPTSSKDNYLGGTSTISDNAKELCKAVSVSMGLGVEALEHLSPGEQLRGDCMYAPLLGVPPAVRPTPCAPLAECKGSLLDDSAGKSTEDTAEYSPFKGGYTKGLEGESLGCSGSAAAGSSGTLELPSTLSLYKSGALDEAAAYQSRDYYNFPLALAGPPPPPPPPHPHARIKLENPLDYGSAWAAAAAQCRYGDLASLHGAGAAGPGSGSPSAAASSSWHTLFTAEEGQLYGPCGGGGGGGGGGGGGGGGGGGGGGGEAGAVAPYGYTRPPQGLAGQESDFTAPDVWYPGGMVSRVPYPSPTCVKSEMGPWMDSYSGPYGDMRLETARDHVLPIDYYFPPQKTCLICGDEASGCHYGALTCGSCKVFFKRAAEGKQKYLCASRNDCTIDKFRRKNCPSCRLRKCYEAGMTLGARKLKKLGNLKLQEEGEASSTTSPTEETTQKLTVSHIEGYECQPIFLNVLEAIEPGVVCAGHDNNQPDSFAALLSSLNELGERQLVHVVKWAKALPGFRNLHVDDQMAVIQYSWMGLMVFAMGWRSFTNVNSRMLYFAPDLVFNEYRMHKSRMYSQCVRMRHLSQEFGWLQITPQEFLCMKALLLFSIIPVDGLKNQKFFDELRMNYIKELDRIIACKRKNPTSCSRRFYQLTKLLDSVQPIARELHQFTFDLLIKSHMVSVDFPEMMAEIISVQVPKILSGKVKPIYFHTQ
Sequence of 5-hydroxytryptamine receptor 5A (Homo sapiens) (P47898 whole entry): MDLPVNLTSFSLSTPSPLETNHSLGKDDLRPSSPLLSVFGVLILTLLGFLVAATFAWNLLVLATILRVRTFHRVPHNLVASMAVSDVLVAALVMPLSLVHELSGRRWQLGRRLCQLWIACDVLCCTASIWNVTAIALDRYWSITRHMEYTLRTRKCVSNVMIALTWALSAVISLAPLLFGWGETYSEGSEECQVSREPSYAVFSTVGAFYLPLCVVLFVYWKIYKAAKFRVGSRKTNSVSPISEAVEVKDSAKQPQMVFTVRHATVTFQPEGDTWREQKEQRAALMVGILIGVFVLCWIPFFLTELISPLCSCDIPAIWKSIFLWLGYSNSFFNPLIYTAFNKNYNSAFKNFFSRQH
Sequence of Cholecystokinin receptor type A (Homo sapiens) (P32238 whole entry): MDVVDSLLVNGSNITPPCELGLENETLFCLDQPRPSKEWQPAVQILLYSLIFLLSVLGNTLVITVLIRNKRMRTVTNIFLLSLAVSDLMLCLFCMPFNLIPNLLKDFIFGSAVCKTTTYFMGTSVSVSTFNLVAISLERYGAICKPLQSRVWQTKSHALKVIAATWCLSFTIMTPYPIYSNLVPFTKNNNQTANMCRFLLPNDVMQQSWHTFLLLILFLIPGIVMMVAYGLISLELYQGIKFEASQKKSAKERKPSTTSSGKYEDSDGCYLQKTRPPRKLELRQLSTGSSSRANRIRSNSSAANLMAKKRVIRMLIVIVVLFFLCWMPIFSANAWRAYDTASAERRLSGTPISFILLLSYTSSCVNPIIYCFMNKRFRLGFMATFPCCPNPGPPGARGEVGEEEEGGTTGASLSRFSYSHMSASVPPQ
Sequence of Prostaglandin G/H synthase 2 (Homo sapiens) (P35354 whole entry): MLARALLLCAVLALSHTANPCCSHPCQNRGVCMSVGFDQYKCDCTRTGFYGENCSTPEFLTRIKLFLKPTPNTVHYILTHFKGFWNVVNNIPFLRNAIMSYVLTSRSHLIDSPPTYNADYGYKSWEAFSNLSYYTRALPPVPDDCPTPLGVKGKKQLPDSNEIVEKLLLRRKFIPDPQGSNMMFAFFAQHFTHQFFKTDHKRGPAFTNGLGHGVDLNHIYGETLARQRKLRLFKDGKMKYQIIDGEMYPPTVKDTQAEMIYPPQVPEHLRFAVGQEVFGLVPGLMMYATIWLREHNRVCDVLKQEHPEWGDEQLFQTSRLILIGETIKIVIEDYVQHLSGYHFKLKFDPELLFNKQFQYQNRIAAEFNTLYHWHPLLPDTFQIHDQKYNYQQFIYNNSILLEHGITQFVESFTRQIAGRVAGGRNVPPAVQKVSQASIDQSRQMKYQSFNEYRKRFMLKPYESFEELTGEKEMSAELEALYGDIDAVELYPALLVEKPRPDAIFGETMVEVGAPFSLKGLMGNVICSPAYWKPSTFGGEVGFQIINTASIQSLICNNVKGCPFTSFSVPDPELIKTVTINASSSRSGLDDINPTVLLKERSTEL
Sequence of Alpha-1A adrenergic receptor (Homo sapiens) (P35348 whole entry): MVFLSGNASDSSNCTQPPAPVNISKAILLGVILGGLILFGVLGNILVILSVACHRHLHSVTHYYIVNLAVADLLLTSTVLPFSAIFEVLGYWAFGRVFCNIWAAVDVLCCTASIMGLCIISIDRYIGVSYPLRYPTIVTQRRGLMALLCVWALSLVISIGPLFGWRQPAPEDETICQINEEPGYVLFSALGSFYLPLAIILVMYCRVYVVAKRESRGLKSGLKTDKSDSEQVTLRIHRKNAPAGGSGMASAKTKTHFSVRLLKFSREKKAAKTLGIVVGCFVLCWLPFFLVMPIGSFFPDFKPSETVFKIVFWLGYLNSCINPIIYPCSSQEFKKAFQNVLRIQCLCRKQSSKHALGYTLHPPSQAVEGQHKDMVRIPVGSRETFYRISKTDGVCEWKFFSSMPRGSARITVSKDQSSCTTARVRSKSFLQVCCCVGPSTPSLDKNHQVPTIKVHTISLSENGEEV
Sequence of Sodium-dependent dopamine transporter (Homo sapiens) (Q01959 whole entry): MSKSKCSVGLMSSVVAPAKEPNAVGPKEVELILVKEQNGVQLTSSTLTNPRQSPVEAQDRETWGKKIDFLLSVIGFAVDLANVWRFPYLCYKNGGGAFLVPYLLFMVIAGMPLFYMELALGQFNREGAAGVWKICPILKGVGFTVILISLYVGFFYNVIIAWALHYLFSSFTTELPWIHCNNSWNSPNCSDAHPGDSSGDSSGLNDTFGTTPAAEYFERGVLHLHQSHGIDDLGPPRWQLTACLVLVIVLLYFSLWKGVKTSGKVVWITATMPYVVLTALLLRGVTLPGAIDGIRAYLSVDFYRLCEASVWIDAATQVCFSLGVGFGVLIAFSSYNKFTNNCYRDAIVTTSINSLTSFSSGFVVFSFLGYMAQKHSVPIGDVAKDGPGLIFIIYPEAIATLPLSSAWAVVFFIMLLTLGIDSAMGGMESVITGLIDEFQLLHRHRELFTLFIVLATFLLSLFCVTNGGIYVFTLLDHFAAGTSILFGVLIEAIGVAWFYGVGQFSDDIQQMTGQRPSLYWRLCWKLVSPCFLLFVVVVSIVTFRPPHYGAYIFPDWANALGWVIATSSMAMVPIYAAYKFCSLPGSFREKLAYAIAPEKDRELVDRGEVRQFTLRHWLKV

For orientation: IC50 means the concentration needed to halve the response being measured. As usually defined, the inhibition is the relative decrease from the control value, in per cent. Consider `CNC(=O)COc1cc2cc(Nc3nc(N4C[C@H](C)C[C@H](C)C4)ncc3Cl)ccc2n(C)c1=O`, for which, in series [1], the IC50 is ≤ 0.003 µM (active). Further, the residual activity in series [2] is 90%; in series [3], 88%; in series [4], 90%; in series [5] it was 12%; in [6] it was 110%; in [7] it was 111%. The residual activity in series [8] was 103%; in series [10] it was 100%; in [11], 89%; in series [12], 114%; in series [13], 100%; in series [14], 104%. The residual activity in [15] is 101%; in [16], 111%; in series [17] it was 118%; in [18] it was 94%; in [19], 92%; in series [20], 113%. The residual activity in [21] was 96%; in series [22] it was 106%; in series [23] it was 101%. Further, the activity at 10 µM in series [9] is given as 99% (not active). Also, the inhibition in [24] is 27%; in series [25] it was 8.61%; in series [26], 0.2%; in series [27], 11.6%; in [28] it was 9.75%; in series [29], 12.6%. Besides, the results for the inhibition in [30], in series [31] and in [32] were 13.3%, -8.13% and -2.43%, respectively.
In the case of `C[C@@H]1C[C@H](C)CN(c2ncc(Cl)c(Nc3ccc4c(c3)cc(OC(C)(C)C(=O)O)c(=O)n4C)n2)C1`, the IC50 in [1] is 10.2 µM (not active). The residual activity in series [2] was 82%; in series [3] it was 75%; in [4], 97%; in series [5], 159%; in series [6], 99%; in series [7], 104%. For the same molecule, the residual activity was 104% in [8]; 137% in [10]; 87% in series [12]; 87% in series [13]; 91% in series [14]. Also, the activity at 10 µM in series [9] is 104% (not active).
